# Columns and labels:
# ITK = ITK (Homo sapiens (Human), UniProt Q08881); assay: ITK inhibitor binding potency (LanthaScreen competitive binding assay); settings: read-out: ITK Inh. IC50
# Source text: The ability of candidate compounds to interact with ITK is quantitated by a competitive binding assay using the LanthaScreen technology developed by Life Technologies. This assay is based on the binding of a proprietary, Alexa Fluor® 647-labeled, ATP-competitive kinase inhibitor (kinase tracer-236) to the ITK expression construct in the presence of a Europium-conjugated antibody, resulting in a FRET (fluorescence resonance energy transfer) signal. Displacement of the kinase tracer by compound results in a lower emission ratio upon excitation of the Europium chelate. Candidate compounds are designed as potential irreversible inhibitors of ITK, capable of ligating to an active site cysteine residue resulting in time dependent covalent binding. The time dependent nature of irreversible inhibition is investigated by performing the binding assay with and without a pre-incubation of compound and ITK. […] The inhibitory potency of candidate compounds is measured in 20 mM HEPES pH 7.5, 10 mM MgCl2, 0.01% BSA, 0.0005% Tween-20, and 2% DMSO in the presence of 10 nM ITK, 2 nM Eu-anti-GST antibody, and 50 nM kinase tracer-236 using a 384-well plate format. Background signal is defined in the absence of ITK and uninhibited signal is defined in the presence of vehicle (2% DMSO) alone. Compounds were evaluated in an 11 point dose-response ranging from 20 uM to 0.34 nM. The binding assays are performed under two preincubation conditions to evaluate time dependence of inhibition. For the pre-incubation assay, ITK and Eu-anti-GST antibody are pre-incubated with compound or vehicle for two hours prior to the addition of kinase tracer. The non-preincubated assay is run under conditions where ITK and Eu-anti-GST antibody are added to a mixture of compound and kinase tracer. IC50 values of compounds are determined using a 4 parameter logistical fit of emission ratio as a function of the concentration of compound.
# [1] = tested on: ITK phosphorylation of its substrate, PLCγ1, at Y783; assay: ITK target modulation assay (PLCγ1 Y783 phosphorylation, anti-CD3 stimulated Jurkat T cells); type: cell-based; settings: Homo sapiens, Jurkat, anti-CD3 Dynabeads stimulation, read-out: PLC-γ Inh. IC50
# Procedure: Target modulation was based upon the ability of a compound to inhibit ITK phosphorylation of its substrate, PLCγ1, at Y783. Human Jurkat T cells (ATCC TIB-152) were plated in V-bottom 96 well plates at 400,000 cells/well in 80 μL medium (RPMI1640 with 10% heat inactivated serum and 55 μM 2-mercaptoethanol and supplemented with glutamine/penicillin/streptomycin). Compounds were added as 10 μL of 10× working stock solutions in medium with 1% DMSO (or medium with 1% DMSO for controls) and placed in a 37° C. incubator with gentle shaking for 1 hour. Stimulation was carried out using anti-CD3 Dynabeads (Invitrogen catalog #1151D) to activate the T cell receptor and mimic antigen presenting cells. Beads were washed and resuspended in medium at 1.84×10^8 beads/ml. Beads were added rapidly to all compound containing and stimulation only wells at 10 μL/well (bead:cell=2:1) with gentle mixing of the bead source between each addition. Wells designated ‘unstimulated’ received 10 μL of media only. The plate was immediately sealed with a plate seal and cells pelleted at 400× g for 4 minutes. Media was removed using a multichannel aspirator, 25 μL of cold hypotonic lysis buffer (VWR M334-100 ml) plus 1×HALT Protease Inhibitor Cocktail (ThermoFisher #78437), 1× Phosphatase Inhibitor Cocktail 2 (Sigma Aldrich #P5726), 1× Phosphatase Inhibitor Cocktail 3 (Sigma Aldrich #P0044) and 2 mM PMSF was added per well. Cells were incubated on ice for 30 minutes to swell the cells then lysed by pipetting 20 times using a multichannel pipet. The plates were then resealed and centrifuged for 5 minutes at 400× g to pellet the cellular debris. Two μL of the soluble component of each sample was spotted onto nitrocellulose and allowed to dry for 30 minutes. Nitrocellulose was wet in 1× Tris Buffer Saline (20 mM Tris pH7.5, 150 mM NaCl) then blocked in LiCOR Odyssey Blocking Buffer (TBS) (LiCOR #927-50000) for 1 hour at room temperature with rocking. Following blocking, nitrocellulose was incubated in LiCOR Odyssey Blocking Buffer (TBS) plus 0.2% Tween20 plus anti-phospho-PLCγ1 (Y783) antibody (CST #2821S) at 1:1000 and anti-PLCγ1 (Abcam #41433) at 1:5000 with gentle rocking overnight at 4° C. Nitrocellulose was then washed four times for 5 minutes each with TBS plus 0.1% Tween20 (TBST) then incubated in LiCOR Odyssey Blocking Buffer (TBS) plus 0.2% Tween20 plus secondary antibodies IRDye 800CW (LiCOR 926-32211) and IRDye 680RD (LiCOR 926-68070) both at 1:15,000 with gentle rocking at room temperature in the dark for 1 hour. Nitrocellulose was then washed four times for 5 minutes each with TBST at room temperature in the dark. A final rinse with TBS was done prior to imaging and quantifying using the LiCOR Odyssey Imager and software respectively.
# [2] = tested on: JAK1/3 phosphorylation of its substrate, STAT5, at Y694; assay: JAK1/3 target modulation assay (IL-2 stimulated STAT5 Y694 phosphorylation in PBMC); type: cell-based; settings: Homo sapiens, PBMC, Primary human peripheral blood mononuclear cells, IL-2 25 ng/mL; read-out: IL2-STAT5 Inh. IC50
# Procedure: Target modulation was based upon the ability of a compound to inhibit JAK1/3 phosphorylation of its substrate, STAT5, at Y694. Primary human peripheral blood mononuclear cells were plated in V-bottom 96 well plates at 200,000 cells/well in 120 μL medium (RPMI-1640 with 10% fetal bovine serum, 10 mM HEPES buffer, 12.2 mM 2-mercaptoethanol, and supplemented with glutamine/penicillin/streptomycin). Compounds were added as 15 μL of 10× working stock solutions in medium with 1% DMSO (or medium with 1% DMSO for controls) and placed in a 37° C. incubator with gentle shaking for 1 hour. Stimulation was carried out using recombinant human IL-2 (R&D Systems #202-IL-050) to activate JAK1/3. IL-2 stock solution was diluted in media to 250 ng/mL and was added rapidly to all compound containing and stimulation only wells at 15 μL/well (final concentration=25 ng/mL). Wells designated ‘unstimulated’ received 15 μL of media only. The plate was placed back in a 37° C. incubator with gentle shaking for 5 minutes. After stimulation, the plates were immediately sealed with a plate seal, and cells pelleted at 400× g for 5 minutes. Media was removed using a multichannel aspirator, and 75 μL of cold Tris lysis buffer (MSD #R60TX-3) plus 1× Protease Inhibitor Solution (MSD #R70AA-1), 1× Phosphatase Inhibitor I (MSD #R70AA-1), and 1× Phosphatase Inhibitor II (MSD #R70AA-1) was added per well. Cells were incubated at 4° C. with gentle shaking for at least 30 minutes to allow for complete lysis. The plates were removed from 4° C., and 25 μL of lysate from each well was added to the corresponding well on the MSD plate. Samples were analyzed by either an MSD multiplex kit for Phospho-STAT5a,b/Total-STAT5a,b (MSD #K15163D) or an MSD single-plex kit for Phospho-STAT5a,b (MSD #K150IGD). The protocols for the respective kits were followed, and the plates were read on the MSD SECTOR S 600.
# JAK3 = JAK3 (Homo sapiens (Human), UniProt P52333); assay: JAK3 enzyme activity assay (Caliper mobility shift); type: biochemical; settings: ATP at Km level; read-out: JAK3 Inh. IC50
# Source text: The ability of candidate compounds to interact with JAK3 is quantitated by a mobility shift assay using an LC3000 instrument developed by Caliper Life Sciences. This assay is based on mobility shift electrophoresis, in which fluorescently labelled product and fluorescently labelled substrate peaks are separated and detected independently. JAK3 product/substrate separation is obtained using the following instrument settings: Pressure=−1.4 psi, Downstream voltage=−2550V and Upstream voltage=−800V. The inhibitory potency of candidate compounds of JAK3 is measured in 20 mM HEPES pH 7.5, 10 mM MgCl2, 0.01% BSA, 0.0005% Tween-20, and 2% DMSO in the presence of 2.5 nM JAK3 (Life Technologies Catalog #PV3855), […] (Anaspec Catalog #AS-64106) and […] (Km level) using a 384-well plate format. Background signal is defined in the absence of enzyme and uninhibited signal is defined in the presence of vehicle (2% DMSO) alone. Compounds were evaluated in an 11 point dose-response ranging from […] to 0.34 nM. IC50 values of compounds are determined using a 4 parameter logistical fit of emission ratio as a function of the concentration of compound.
# JAK3, sequence (P52333 781-1124): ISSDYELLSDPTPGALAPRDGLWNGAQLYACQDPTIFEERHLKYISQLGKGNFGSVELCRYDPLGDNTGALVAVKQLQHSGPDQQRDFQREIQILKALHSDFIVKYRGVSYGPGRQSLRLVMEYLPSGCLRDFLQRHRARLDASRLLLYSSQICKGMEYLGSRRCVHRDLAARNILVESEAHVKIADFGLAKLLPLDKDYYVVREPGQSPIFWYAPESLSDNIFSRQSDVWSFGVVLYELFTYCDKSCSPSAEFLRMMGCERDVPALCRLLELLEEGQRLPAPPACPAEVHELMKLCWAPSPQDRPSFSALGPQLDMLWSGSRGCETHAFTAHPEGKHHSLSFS
# ITK, sequence (Q08881 whole entry): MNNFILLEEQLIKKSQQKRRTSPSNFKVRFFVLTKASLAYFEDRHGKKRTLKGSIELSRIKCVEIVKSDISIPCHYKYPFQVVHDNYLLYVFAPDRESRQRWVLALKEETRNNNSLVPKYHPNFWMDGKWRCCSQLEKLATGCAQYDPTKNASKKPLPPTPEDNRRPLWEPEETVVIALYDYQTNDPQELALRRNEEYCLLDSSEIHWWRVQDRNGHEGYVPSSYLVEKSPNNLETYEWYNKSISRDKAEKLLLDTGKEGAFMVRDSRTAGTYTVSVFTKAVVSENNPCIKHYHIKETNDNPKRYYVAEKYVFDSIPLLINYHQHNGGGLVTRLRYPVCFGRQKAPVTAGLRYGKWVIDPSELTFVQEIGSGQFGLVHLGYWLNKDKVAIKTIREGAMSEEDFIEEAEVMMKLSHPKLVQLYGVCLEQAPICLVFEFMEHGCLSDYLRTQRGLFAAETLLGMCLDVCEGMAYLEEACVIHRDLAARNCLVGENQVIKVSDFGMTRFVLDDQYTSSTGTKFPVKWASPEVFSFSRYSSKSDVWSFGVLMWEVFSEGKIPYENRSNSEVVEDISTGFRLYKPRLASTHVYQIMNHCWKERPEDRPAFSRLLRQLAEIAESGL
Structure (SMILES),IC50 (ITK) [nM],IC50 [1] [nM],IC50 [2] [nM],IC50 (JAK3) [nM]
"C=CC(=O)N1C[C@H](Nc2ncnc3[nH]cc([C@H]4CC4(F)F)c23)CC[C@@H]1C(C)C (single isomer, unassigned) [Example 63]",> 100,> 1000,> 1000,> 100
"C=CC(=O)N1C[C@H](Nc2ncnc3[nH]cc([C@@H]4CC4(F)F)c23)CC[C@@H]1C(C)C (single isomer, unassigned) [Example 64]",> 100,> 1000,> 1000,> 100
"C=CC(=O)N1C[C@@H](Nc2ncnc3[nH]cc([C@H]4CC4(F)F)c23)CC[C@H]1C(C)C (single isomer, unassigned) [Example 65]",≤ 10,≤ 100,100 to 1000,≤ 10
"C=CC(=O)N1C[C@@H](Nc2ncnc3[nH]cc([C@@H]4CC4(F)F)c23)CC[C@H]1C(C)C (single isomer, unassigned) [Example 66]",10 to 100,100 to 1000,> 1000,10 to 100
"C=CC(=O)N1C[C@H](Nc2ncnc3[nH]cc([C@H]4CC4(F)F)c23)CC[C@@H]1CC (single isomer, unassigned) [Example 67]",> 100,> 1000,> 1000,> 100
"C=CC(=O)N1C[C@H](Nc2ncnc3[nH]cc([C@@H]4CC4(F)F)c23)CC[C@@H]1CC (single isomer, unassigned) [Example 68]",≤ 10,≤ 100,≤ 100,≤ 10
"C=CC(=O)N1C[C@@H](Nc2ncnc3[nH]cc([C@H]4CC4(F)F)c23)CC[C@H]1CC (single isomer, unassigned) [Example 69]",10 to 100,100 to 1000,> 1000,10 to 100
"C=CC(=O)N1C[C@@H](Nc2ncnc3[nH]cc([C@@H]4CC4(F)F)c23)CC[C@H]1CC (single isomer, unassigned) [Example 70]",≤ 10,100 to 1000,100 to 1000,≤ 10
"C=C(C)C(=O)N1C[C@H](Nc2ncnc3[nH]cc([C@@H]4CC4(F)F)c23)CC[C@@H]1C (single isomer, unassigned) [Example 71]",> 100,> 1000,> 1000,> 100
"C=CC(=O)N1C[C@H](Nc2ccnc3[nH]cc([C@H]4CC4(F)F)c23)CC[C@@H]1C (single isomer, unassigned) [Example 73]",≤ 10,≤ 100,≤ 100,≤ 10
"C=CC(=O)N1C[C@H](Nc2ccnc3[nH]cc([C@@H]4CC4(F)F)c23)CC[C@@H]1C (single isomer, unassigned) [Example 74]",≤ 10,100 to 1000,100 to 1000,≤ 10
"C=CC(=O)N1C[C@H](Nc2ccnc3[nH]cc([C@H]4C[C@@H]4COC)c23)CC[C@@H]1C (single isomer, unassigned) [Example 76]",> 100,> 1000,> 1000,10 to 100
"C=CC(=O)N1C[C@H](Nc2ccnc3[nH]cc([C@@H]4C[C@H]4COC)c23)CC[C@@H]1C (single isomer, unassigned) [Example 77]",≤ 10,100 to 1000,100 to 1000,≤ 10
"C=CC(=O)N1CCC[C@@H](Nc2ncnc3[nH]cc([C@]45CCC[C@H]4C5(F)F)c23)C1 (single isomer, unassigned) [Example 80]",10 to 100,> 1000,> 1000,≤ 10
"C=CC(=O)N1CCC[C@@H](Nc2ncnc3[nH]cc(C(=O)OCC)c23)C1 [Example 1, ethyl (R)-4-((1-acryloylpiperidin-3-yl)amino)-7H-pyrrolo[2,3-d]pyrimidine-5-carboxylate]",≤ 10,> 1000,100 to 1000,≤ 10
"C=CC(=O)N1C[C@H](Nc2ncnc3[nH]cc(C(=O)OCC)c23)CC[C@@H]1C [Example 2, ethyl 4-(((3R,6S)-1-acryloyl-6-methylpiperidin-3-yl)amino)-7H-pyrrolo[2,3-d]pyrimidine-5-carboxylate]",≤ 10,100 to 1000,100 to 1000,≤ 10
